Results from patent publication US7919255B2, “Assessment of skeletal growth using measurements of NT-CNP peptides” (priority 2003, dated 2011).

What was measured:
[1] = tested on: adult sheep; assay: Dexamethasone 0.25 mg/kg/day for 4 days in adult sheep; format: in vivo; conditions: after 48 hours of dexamethasone treatment
Experimental: (§1) FIG. 11A and FIG. 11B: Effect of 4 days of treatment with a glucocorticoid (dexamethasone, 0.25 mg/kg/day) in 12 week old lambs (filled circles, n=8) and in adult sheep (open circles, n=8) on (A) plasma NT-CNP and (B) change (?) in plasma alkaline phosphatase activity (ALP). Values are mean±SEM;
(§2) This differential response to dexamethasone was highly significant for both NT-CNP (F=5.4, p<0.001) and ALP (F=4.1, p=0.002). After 48 hours of dexamethasone treatment, plasma NT-CNP in lambs fell 30.8±3.5% from basal compared with 17.7±2.7% in adult sheep. Both the onset and offset of dexamethasone's action on NT-CNP preceded that of ALP (FIG. 11A and FIG. 11B).

[2] = tested on: 12 week old lambs; assay: Dexamethasone 0.25 mg/kg/day for 4 days in 12 week old lambs; format: in vivo, sheep; conditions: after 48 hours of dexamethasone treatment
Experimental: as §1, §2

[3] = tested on: 4 week old lambs; assay: Dexamethasone 0.25 mg/kg/day for 15 days in 4 week old lambs versus saline; format: in vivo, sheep
Experimental: FIG. 12A, FIG. 12B, FIG. 12C and FIG. 12D: Effect of a glucocorticoid (dexamethasone, 0.25 mg/kg/day) (filled circles, n=8) or saline control treatment (open circles, n=8), administered to 4 week old lambs for 15 days, on (FIG. 12A) plasma NT-CNP (FIG. 12B) plasma alkaline phosphatase activity (FIG. 12C) metacarpal length and (FIG. 12D) body weight. Values are mean±SEM; and
In order to study a possible linkage between changes in NT-CNP and growth velocity, a more prolonged study was undertaken in younger growing lambs.
We undertook a study in normal lambs. Lambs (n=16, aged 4 weeks) either received dexamethasone (0.25 mg/kg/day) or saline injections (controls) for 15 days. The predictive effect of a plasma NT-CNP concentration (drawn 24 hours after starting treatment) on subsequent growth inhibition (defined as growth velocity less than 5% of that of control lambs) was examined by ROC curve analysis (FIG. 13). […] The area under the curve (AUC) was 0.85.

[4] = tested on: J39 antisera; assay: Cross reactivities of the NT-CNP radioimmunoassay using the J39 antisera; format: binding, rabbit; conditions: NT-CNP RIA
Experimental: Antiserum production: Human NT-CNP(1-15) (5 mg) was conjugated to 4.2 mg of bovine serum albumin (BSA, fraction V, GibcoBRL, Life Technologies) using 62.2 mg of 1-ethyl-3(3-dimethyaminopropyl) carbodiimide at pH 7 for 18 hours and dialysed against phosphate buffered saline. Rabbits were given a primary subcutaneous injection of the antigen after emulsification with an equal volume of complete Freunds adjuvant (Sigma Chemical Co., St Lois. Mo., USA). Subsequent injections using incomplete Freunds reagent were given at monthly intervals. Rabbits were bled two weeks after each injection and tested for binding of radioactive tracer and its displacement by NT-CNP (1-15) standards.
RIA for N-terminal CNP: NT-CNP(1-15)-Tyr^16 (5 μg) was iodinated using 0.5 mCi Na^125I in the presence of 10 μg chloramine-T in 5 μl 0.5M phosphate buffer, pH 7.5 for 30 seconds, followed by the addition of 50 μg cysteine, 25 μg BSA and 20 μg KI in 100 μl buffer. The resulting mixture was loaded onto a 10 m RP300 Brownlee column and eluted with a gradient from 0-60% acetonitrile in 49 mM KH2PO4 pH 2.9 over 30 min at 1 ml/min, collecting 0.5 ml fractions. The fraction containing the major peak of radioactive NT-CNP(1-15)-[^125I]Tyr^16 was used in the RIA. Peptide standards were made from synthetic human NT-CNP(1-19) taking into account the purity data supplied. […]

[5] = molecular target: antiserum J39, raised in rabbits to a synthetic peptide corresponding to the first 15 amino acids of human ProCNP(1-103), conjugated to BSA; assay: competitive radioimmunoassay with J39 antiserum
[6] = molecular target: antiserum J39, raised in rabbits to a synthetic peptide corresponding to the first 15 amino acids of human ProCNP(1-103), conjugated to BSA; assay: competitive radioimmunoassay: NT-CNP(1-19) standards displace NT-CNP(1-15)-[125I]Tyr16 from antiserum J39
[7] = 4 week old lambs, 0.25 mg/kg/day for 15 days

Molecule: C[C@@H]1C[C@H]2[C@@H]3CCC4=CC(=O)C=C[C@]4(C)[C@@]3(F)[C@@H](O)C[C@]2(C)[C@@]1(O)C(=O)CO [dexamethasone]
- fall in plasma NT-CNP from basal [1]: 17.7±2.7%
- fall in plasma NT-CNP from basal [2]: 30.8±3.5%
- effect on metacarpal elongation [3, 7]: pronounced decrease
- time for NT-CNP to return to control levels after cessation of treatment [3, 7]: ≤ 24 h
- time to fall in NT-CNP after starting treatment [3, 7]: ≤ 24 h
- effect on body weight ([3]; 4 week old lambs, compared with saline treated lambs): small but significant effect
- body weight difference between treatment groups at cessation of treatment ([3]; day 15, dexamethasone versus saline): not significantly different

Molecule: hBNP32: peptide tested for cross reactivity in the NT-CNP radioimmunoassay
- Cross reactivity [4]: < 0.05%

Molecule: hproBNP(1-21): peptide tested for cross reactivity in the NT-CNP radioimmunoassay
- Cross reactivity [4]: < 0.4%

B1: hCNP-22 (peptide)
peptide: GLSKGCFGLKLDRIGSMSGLGC
- cross reactivity [5]: < 0.03%

B2: human NT-CNP(1-19) (peptide)
peptide: KPGAPPKVPRTPPAEELAE
- ED50 [6]: 0.11 nM

B3: hCNP-53 (peptide)
peptide: DLRVDTKSRAAWARLLQEHPNARKYKGANKKGLSKGCFGLKLDRIGSMSGLGC
- cross reactivity [5]: < 0.07%
